How the values were obtained:
[1] = system: rumen microorganisms (mixed microbial population of rumen contents); test: Enhancement of intraruminal propionic acid production, batch culture fermentation of rumen contents; format: cell-based, bovine (rumen-fistulated); details: 9 h, 39° C.
Method: Enhancement of intraruminal propionic acid production is determined using a batch culture fermentation system. Rumen contents from a rumen-fistulated bovine are mixed with an equal amount of buffer which contains mineral, energy and nitrogen sources required for continued growth and metabolism of the mixed microbial population. Aliquots of this inoculum then are transferred to incubation vessels containing appropriate amounts of sodium laidlomycin (Na L.) (see Example 1A), and L. butyrate (L.C4) (prepared according to the procedure of Example 1A). After 9 hours of incubation at 39° C., concentrations of individual volatile fatty acids in each incubation vessel are determined by gas-liquid chromatography. The net production of each individual volatile fatty acid (acetic [AA], propionic [PA] and butyric [BA]) is calculated as the difference between the concentration after incubation and the concentration before incubation. The molar percentage of propionic acid produced is calculated from the following equation: [formula]
The comparative activities of sodium laidlomycin (Na L.) and the laidlomycin butyrate upon propionic acid and lactic acid production are set forth in Tables 1 and 2 where the concentration is in micrograms per ml (μg/ml).
(§1) The procedure of Example 2 was followed to compare laidlomycin (L.), sodium L. (Na L.), L.-propionate (L.C3), L. butyrate (L.C4), L. isobutyrate (L. isoC4), L. pentanoate (L.C5) and L. hexanoate (L.C6).
(§2) The procedure of Example 2 was followed to compare the activities of L. heptanoate (L. C7), L. octanoate (L. C8), L. decanoate (L. C10) and L. dodecanoate (L. C12) in increasing propionic acid production and inhibiting lactic acid production.
(§3) The procedure of Example 2 was followed to compare the activities of laidlomycin (L.) acetate (L. C2), L. pentanoate (L. C5), L. stearate (L. C18), L. cyclobutylcarboxylate, L. cyclopentylcarboxylate, L. cyclohexylcarboxylate and L. cyclopropylcarboxylate.

[2] = system: rumen contents (lactic acid accumulation); test: Inhibition of lactic acid accumulation, second batch culture fermentation of rumen contents with glucose; format: cell-based, bovine (rumen fistulated); details: 6 h, 39° C.; for Lactic Acid Accumulation (μ mol/ml): Table 8, 0 μg/ml: 40.47
Method: Inhibition of lactic acid accumulation is determined using a second batch culture fermentation system. Rumen contents from a rumen fistulated bovine are mixed with an equal amount of buffer which contains a 150 mM concentration of glucose. Following 6 hours of incubation at 39° C., lactic acid produced in the fermentation is analyzed by a specific enzymatic assay. The concentration of lactic acid in the fermentation broth is quantified by the increase in absorbance of light at […] when nicotinamide adenine dinucleotide is reduced by lactic acid with the aid of lactate dehydrogenase. […]
as §1, §2, §3

[3] = Table 7, 1.25 μg/ml, 0 μg/ml: 36.1
[4] = Table 7, 2.5 μg/ml, 0 μg/ml: 36.1
[5] = Table 7, 5 μg/ml, 0 μg/ml: 36.1
[6] = Table 7, 10 μg/ml, 0 μg/ml: 36.1
[7] = Table 7, 20 μg/ml, 0 μg/ml: 36.1
[8] = Table 7, .313 μg/ml, 0 μg/ml: 36.1
[9] = Table 7, .625 μg/ml, 0 μg/ml: 36.1

CCC(=O)OC(C(C)C(=O)O)C(C)C1OC2(CCC(C)(C3CCC(C)(C4OC(C5OC(O)(COC(=O)C6CCC6)C(C)CC5C)CC4C)O3)O2)CC(O)C1C (stereo not drawn) [Cyclobutylcarboxylate, laidlomycin cyclobutylcarboxylate]
% Propionic Acid [1, 3]: 50.0% | % Propionic Acid [1, 4]: 52.5% | % Propionic Acid [1, 5]: 51.7% | % Propionic Acid [1, 6]: 51.8% | % Propionic Acid [1, 7]: 51.2% | % Propionic Acid [1, 8]: 47.5% | % Propionic Acid [1, 9]: 47.1% | Lactic Acid Accumulation (μ mol/ml) ([2]; 1.25 μg/ml): 3.82 μ mol/ml | Lactic Acid Accumulation (μ mol/ml) ([2]; 2.5 μg/ml): 4.01 μ mol/ml | Lactic Acid Accumulation (μ mol/ml) ([2]; 5 μg/ml): 4.32 μ mol/ml | Lactic Acid Accumulation (μ mol/ml) ([2]; 10 μg/ml): 4.73 μ mol/ml | Lactic Acid Accumulation (μ mol/ml) ([2]; 20 μg/ml): 4.75 μ mol/ml | Lactic Acid Accumulation (μ mol/ml) ([2]; .313 μg/ml): 23.25 μ mol/ml | Lactic Acid Accumulation (μ mol/ml) ([2]; .625 μg/ml): 8.05 μ mol/ml

CCC(=O)OC(C(C)C(=O)O)C(C)C1OC2(CCC(C)(C3CCC(C)(C4OC(C5OC(O)(COC(=O)C6CCCCC6)C(C)CC5C)CC4C)O3)O2)CC(O)C1C (stereo not drawn) [Cyclohexylcarboxylate, laidlomycin cyclohexylcarboxylate]
% Propionic Acid [1, 3]: 50.1% | % Propionic Acid [1, 4]: 50.8% | % Propionic Acid [1, 5]: 51.6% | % Propionic Acid [1, 6]: 51.8% | % Propionic Acid [1, 7]: 53.3% | % Propionic Acid [1, 8]: 47.2% | % Propionic Acid [1, 9]: 49.0% | Lactic Acid Accumulation (μ mol/ml) ([2]; 1.25 μg/ml): 3.74 μ mol/ml | Lactic Acid Accumulation (μ mol/ml) ([2]; 2.5 μg/ml): 4.40 μ mol/ml | Lactic Acid Accumulation (μ mol/ml) ([2]; 5 μg/ml): 4.83 μ mol/ml | Lactic Acid Accumulation (μ mol/ml) ([2]; 10 μg/ml): 4.97 μ mol/ml | Lactic Acid Accumulation (μ mol/ml) ([2]; 20 μg/ml): 5.72 μ mol/ml | Lactic Acid Accumulation (μ mol/ml) ([2]; .313 μg/ml): 35.55 μ mol/ml | Lactic Acid Accumulation (μ mol/ml) ([2]; .625 μg/ml): 12.78 μ mol/ml

CCC(=O)OC(C(C)C(=O)O)C(C)C1OC2(CCC(C)(C3CCC(C)(C4OC(C5OC(O)(COC(=O)C6CCCC6)C(C)CC5C)CC4C)O3)O2)CC(O)C1C (stereo not drawn) [Cyclopentylcarboxylate, laidlomycin cyclopentylcarboxylate]
% Propionic Acid [1, 3]: 51.9% | % Propionic Acid [1, 4]: 50.3% | % Propionic Acid [1, 5]: 51.1% | % Propionic Acid [1, 6]: 51.6% | % Propionic Acid [1, 7]: 50.0% | % Propionic Acid [1, 8]: 47.1% | % Propionic Acid [1, 9]: 47.9% | Lactic Acid Accumulation (μ mol/ml) ([2]; 1.25 μg/ml): 3.63 μ mol/ml | Lactic Acid Accumulation (μ mol/ml) ([2]; 2.5 μg/ml): 3.73 μ mol/ml | Lactic Acid Accumulation (μ mol/ml) ([2]; 5 μg/ml): 4.08 μ mol/ml | Lactic Acid Accumulation (μ mol/ml) ([2]; 10 μg/ml): 4.53 μ mol/ml | Lactic Acid Accumulation (μ mol/ml) ([2]; 20 μg/ml): 9.66 μ mol/ml | Lactic Acid Accumulation (μ mol/ml) ([2]; .313 μg/ml): 24.75 μ mol/ml | Lactic Acid Accumulation (μ mol/ml) ([2]; .625 μg/ml): 6.79 μ mol/ml

CCC(=O)OC(C(C)C(=O)O)C(C)C1OC2(CCC(C)(C3CCC(C)(C4OC(C5OC(O)(COC(=O)C6CC6)C(C)CC5C)CC4C)O3)O2)CC(O)C1C (stereo not drawn) [Cyclopropylcarboxylate, laidlomycin cyclopropylcarboxylate]
% Propionic Acid [1, 3]: 49.7% | % Propionic Acid [1, 4]: 49.3% | % Propionic Acid [1, 5]: 50.9% | % Propionic Acid [1, 6]: 49.6% | % Propionic Acid [1, 7]: 50.7% | % Propionic Acid [1, 8]: 47.7% | % Propionic Acid [1, 9]: 46.4% | Lactic Acid Accumulation (μ mol/ml) ([2]; 1.25 μg/ml): 2.50 μ mol/ml | Lactic Acid Accumulation (μ mol/ml) ([2]; 2.5 μg/ml): 3.16 μ mol/ml | Lactic Acid Accumulation (μ mol/ml) ([2]; 5 μg/ml): 3.17 μ mol/ml | Lactic Acid Accumulation (μ mol/ml) ([2]; 10 μg/ml): 3.53 μ mol/ml | Lactic Acid Accumulation (μ mol/ml) ([2]; 20 μg/ml): 3.96 μ mol/ml | Lactic Acid Accumulation (μ mol/ml) ([2]; .313 μg/ml): 15.54 μ mol/ml | Lactic Acid Accumulation (μ mol/ml) ([2]; .625 μg/ml): 2.12 μ mol/ml

CCC(=O)OC(C(C)C(=O)O)C(C)C1OC2(CCC(C)(C3CCC(C)(C4OC(C5OC(O)(COC(C)=O)C(C)CC5C)CC4C)O3)O2)CC(O)C1C (stereo not drawn) [L. C2]
% Propionic Acid [1, 3]: 50.7% | % Propionic Acid [1, 4]: 50.4% | % Propionic Acid [1, 5]: 52.2% | % Propionic Acid [1, 6]: 51.2% | % Propionic Acid [1, 7]: 53.0% | % Propionic Acid [1, 8]: 42.8% | % Propionic Acid [1, 9]: 47.1% | Lactic Acid Accumulation (μ mol/ml) ([2]; 1.25 μg/ml): 6.89 μ mol/ml | Lactic Acid Accumulation (μ mol/ml) ([2]; 2.5 μg/ml): 4.34 μ mol/ml | Lactic Acid Accumulation (μ mol/ml) ([2]; 5 μg/ml): 4.35 μ mol/ml | Lactic Acid Accumulation (μ mol/ml) ([2]; 10 μg/ml): 4.35 μ mol/ml | Lactic Acid Accumulation (μ mol/ml) ([2]; 20 μg/ml): 5.28 μ mol/ml | Lactic Acid Accumulation (μ mol/ml) ([2]; .313 μg/ml): 41.19 μ mol/ml | Lactic Acid Accumulation (μ mol/ml) ([2]; .625 μg/ml): 22.23 μ mol/ml

CCC(=O)OCC1(O)OC(C2CC(C)C(C3(C)CCC(C4(C)CCC5(CC(O)C(C)C(C(C)C(OC(=O)CC)C(C)C(=O)O)O5)O4)O3)O2)C(C)CC1C (stereo not drawn) [L. C3, laidlomycin propionate]
% Propionic Acid ([1]; Table 3, 1.25 μg/ml, 0 μg/ml: 28.5): 37.8% | % Propionic Acid ([1]; Table 3, 5 μg/ml, 0 μg/ml: 28.5): 41.9% | % Propionic Acid ([1]; Table 3, 20 μg/ml, 0 μg/ml: 28.5): 44.4% | % Propionic Acid ([1]; Table 3, .31 μg/ml, 0 μg/ml: 28.5): 32.9% | activity at 1.25 µg/mL ([2]; Bos taurus, Table 4, 1.25 μg/ml, read-out: Accumulation of Lactic Acid - % of Control): 14% | activity at 5 µg/mL ([2]; Bos taurus, Table 4, 5 μg/ml, read-out: Accumulation of Lactic Acid - % of Control): 13% | activity at 20 µg/mL ([2]; Bos taurus, Table 4, 20 μg/ml, read-out: Accumulation of Lactic Acid - % of Control): 14% | activity at 0.31 µg/mL ([2]; Bos taurus, Table 4, .31 μg/ml, read-out: Accumulation of Lactic Acid - % of Control): 71%
